Results as given in ChEMBL document CHEMBL1201862, “PubChem BioAssay data set” (2004).
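96-well plates; 48 h exposure; 5 concentrations. Endpoints by linear interpolation between flanking doses. Not reached: highest tested concentration assigned. The concentration for 50% growth inhibition is given as GI50.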 Calls of active or inactive are those of the source. Cut-off read from the data, not from the text of the source: active = GI50 up to about 1.1 µM and inactive = higher.

Assays:
Test in all cases: NCI-60 cell line screen, 48 h
MDA-N = tested on: MDA-N
MCF7 = tested on: MCF7
SF-295 = tested on: SF-295
MDA-MB-435 = tested on: MDA-MB-435
HL-60 = tested on: HL-60
UACC-257 = tested on: UACC-257
NCI/ADR-RES = tested on: NCI/ADR-RES
ACHN = tested on: ACHN
SW-620 = tested on: SW-620
Hs-578T = tested on: Hs-578T
HCT-116 = tested on: HCT-116
IGROV-1 = tested on: IGROV-1
NCI-H226 = tested on: NCI-H226
A549 = tested on: A549
OVCAR-3 = tested on: OVCAR-3
Malme-3M = tested on: Malme-3M
SF-539 = tested on: SF-539
SNB-19 = tested on: SNB-19
786-0 = tested on: 786-0

| Structure (SMILES) | GI50 (MDA-N) | GI50 (MCF7) | GI50 (SF-295) | GI50 (MDA-MB-435) | GI50 (HL-60) | GI50 (UACC-257) | GI50 (NCI/ADR-RES) | GI50 (ACHN) | GI50 (SW-620) | GI50 (Hs-578T) | GI50 (HCT-116) | GI50 (IGROV-1) | GI50 (NCI-H226) | GI50 (A549) | GI50 (OVCAR-3) | GI50 (Malme-3M) | GI50 (SF-539) | GI50 (SNB-19) | GI50 (786-0) |
| --- | --- | --- | --- | --- | --- | --- | --- | --- | --- | --- | --- | --- | --- | --- | --- | --- | --- | --- | --- |
| CC(C)CCCC(C)[C@H]1CC[C@H]2NCCCC[C@]12C (some centres undefined) | 1.96 µM (inactive) | 2 µM (inactive) | 2.33 µM (inactive) | 2.01 µM (inactive) | 1.93 µM (inactive) | 3.83 µM (inactive) | 6.71 µM (inactive) | 2.07 µM (inactive) | 2.61 µM (inactive) | 6.82 µM (inactive) | 3.03 µM (inactive) | 6.19 µM (inactive) | 9.14 µM (inactive) | 6.64 µM (inactive) | 11.9 µM (inactive) | 4.61 µM (inactive) | 5.92 µM (inactive) | 5.36 µM (inactive) | 3.78 µM (inactive) |
| CCOc1cc(/C=N/c2ccc(Oc3ccc(Cl)cc3)c(Cl)c2)ccc1O | 25 µM (inactive) | 31.9 µM (inactive) | 18.7 µM (inactive) | 35.3 µM (inactive) | 15.3 µM (inactive) | 27.1 µM (inactive) | 21.8 µM (inactive) | 32.4 µM (inactive) | 29.6 µM (inactive) | 18.8 µM (inactive) | 17.9 µM (inactive) | 19.1 µM (inactive) | 26.9 µM (inactive) | 30.1 µM (inactive) | 29.6 µM (inactive) | 23.3 µM (inactive) | 22.8 µM (inactive) | 25.2 µM (inactive) | 17 µM (inactive) |
| CCN(CC)Cc1ccccc1CC(=O)N1c2ccccc2C(=O)Nc2cccnc21 | > 100 µM (inactive) | 41.2 µM (inactive) | > 100 µM (inactive) | > 100 µM (inactive) | 46 µM (inactive) | > 100 µM (inactive) | 59.6 µM (inactive) | > 100 µM (inactive) | > 100 µM (inactive) | > 100 µM (inactive) | 38.8 µM (inactive) | > 100 µM (inactive) | > 100 µM (inactive) | > 100 µM (inactive) | > 100 µM (inactive) | > 100 µM (inactive) | > 100 µM (inactive) | > 100 µM (inactive) | 62.2 µM (inactive) |
| COc1cc(C2c3cc4c(cc3OC(C)(N3CCCC3)C2C)OCO4)cc(OC)c1OC (centres undefined) | 0.154 µM (active) | 0.457 µM (active) | 0.223 µM (active) | 0.128 µM (active) | 0.182 µM (active) | 0.437 µM (active) | 0.192 µM (active) | 0.815 µM (active) | 0.153 µM (active) | 0.273 µM (active) | 0.433 µM (active) | 0.435 µM (active) | 0.313 µM (active) | 0.515 µM (active) | 0.203 µM (active) | 0.343 µM (active) | 0.229 µM (active) | 0.391 µM (active) | 0.428 µM (active) |
| CCOC(=O)CC/C(=N/Nc1ccc(Cl)cc1[N+](=O)[O-])C(=O)OCC | > 100 µM (inactive) | > 100 µM (inactive) | > 100 µM (inactive) | > 100 µM (inactive) | > 100 µM (inactive) | > 100 µM (inactive) | > 100 µM (inactive) | > 100 µM (inactive) | > 100 µM (inactive) | > 100 µM (inactive) | > 100 µM (inactive) | > 100 µM (inactive) | > 100 µM (inactive) | > 100 µM (inactive) | > 100 µM (inactive) | > 100 µM (inactive) | > 100 µM (inactive) | > 100 µM (inactive) | > 100 µM (inactive) |
| N#CC1=C(S)N(C2OC(CO)C(O)C(O)C2O)C(c2ccccc2)=CC1c1ccccc1 (centres undefined) | 37.2 µM (inactive) | 43.1 µM (inactive) | 34.3 µM (inactive) | 39.9 µM (inactive) | 40.9 µM (inactive) | 51.6 µM (inactive) | > 100 µM (inactive) | 62.1 µM (inactive) | 5.66 µM (inactive) | 41.5 µM (inactive) | 35.6 µM (inactive) | 46 µM (inactive) | 36.2 µM (inactive) | > 100 µM (inactive) | 28.3 µM (inactive) | 52.1 µM (inactive) | 24.7 µM (inactive) | 64.6 µM (inactive) | 37.9 µM (inactive) |
